Bridge positions count the residues as written; N and C are the ends. Square brackets hold non-standard residues; d marks the D form. Peptide text beside a SMILES is read from it. * marks the point of attachment. X1 = CCCCCCCCCCCCCCCCO[C@@H]1O[C@H](CO[C@H]2O[C@H](C(=O)*)[C@H](O)[C@H](O)[C@H]2O)[C@@H](O)[C@H](O)[C@H]1O; X2 = CCCCCCCCCCCCCCO[C@@H]1O[C@H](CO[C@H]2O[C@H](C(=O)*)[C@H](O)[C@H](O)[C@H]2O)[C@@H](O)[C@H](O)[C@H]1O; βGlcA(1-O-hexadecyl) = CCCCCCCCCCCCCCCCO[C@@H]1O[C@H](C(=O)*)[C@@H](O)[C@H](O)[C@H]1O; GlcA(1β-O-tetradecyl) = CCCCCCCCCCCCCCO[C@@H]1O[C@H](C(=O)*)[C@@H](O)[C@H](O)[C@H]1O; Aib = CC(C)(N)C(=O)O
Key:
[1] = target: T1, human GLP-1 receptor (Homo sapiens, UniProt P43220); assay: DiscoveRx LeadHunter cellular assay, cAMP stimulation, GLP-1 receptor in CHO cells; format: cell-based; conditions: human GLP-1 receptor in CHO cells (DiscoveRx); read-out: EC50 cAMP GLP-1 R
T1 construct: host or cells: CHO cells
T1 sequence (P43220 24-463): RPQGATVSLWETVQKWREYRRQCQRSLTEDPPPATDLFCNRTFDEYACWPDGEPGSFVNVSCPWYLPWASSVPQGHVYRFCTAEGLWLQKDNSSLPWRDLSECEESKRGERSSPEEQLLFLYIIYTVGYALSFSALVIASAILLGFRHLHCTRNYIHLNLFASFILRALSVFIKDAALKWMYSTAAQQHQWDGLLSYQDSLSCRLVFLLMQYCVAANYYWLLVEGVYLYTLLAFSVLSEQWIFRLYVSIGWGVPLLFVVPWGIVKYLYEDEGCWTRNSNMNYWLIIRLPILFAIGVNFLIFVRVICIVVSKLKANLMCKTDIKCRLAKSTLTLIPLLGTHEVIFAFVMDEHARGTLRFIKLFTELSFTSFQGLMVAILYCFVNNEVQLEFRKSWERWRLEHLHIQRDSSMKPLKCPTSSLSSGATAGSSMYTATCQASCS
Procedure: (§1) A further series of cellular assays was carried out with standard cellular assays (DiscoveRx, LeadHunter assays) using readout of cAMP stimulation or arrestin activation. Compounds were weighed precisely in an amount of about 1 mg and shipped to DiscoveRx for dilution and assay.

[2] = target: T2, human glucagon receptor (Homo sapiens, UniProt P47871); assay: DiscoveRx LeadHunter cellular assay, cAMP stimulation, glucagon receptor in CHO cells; format: cell-based
T2 construct: host or cells: CHO cells
T2 sequence (P47871 26-477): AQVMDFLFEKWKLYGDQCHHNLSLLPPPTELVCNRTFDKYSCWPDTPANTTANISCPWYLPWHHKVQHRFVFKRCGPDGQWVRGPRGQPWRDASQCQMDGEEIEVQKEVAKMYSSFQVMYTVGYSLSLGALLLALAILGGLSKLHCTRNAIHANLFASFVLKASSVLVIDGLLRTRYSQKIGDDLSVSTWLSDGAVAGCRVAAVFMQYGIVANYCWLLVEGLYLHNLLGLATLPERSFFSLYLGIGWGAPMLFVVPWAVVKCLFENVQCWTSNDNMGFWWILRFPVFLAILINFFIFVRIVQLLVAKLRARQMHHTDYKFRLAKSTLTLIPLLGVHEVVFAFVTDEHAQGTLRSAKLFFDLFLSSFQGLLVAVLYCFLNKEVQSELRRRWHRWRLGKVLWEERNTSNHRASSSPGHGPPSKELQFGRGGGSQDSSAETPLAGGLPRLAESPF
Procedure: as §1

| Compound | EC50 [1] [nM] | EC50 [2] [nM] |
| --- | --- | --- |
| CCCCCCCCCCCCO[C@@H]1O[C@H](C(=O)N[C@@H](CCC(=O)N[C@@H](CCC(=O)NCCCC[C@H](NC(=O)[C@@H](NC(=O)[C@H](Cc2ccccc2)NC(=O)[C@H](CCC(=O)O)NC(=O)[C@@H]2CCCCNC(=O)CC[C@H](NC(=O)[C@H](CC(=O)O)NC(=O)[C@H](CC(C)C)NC(=O)[C@H](Cc3ccc(O)cc3)NC(=O)[C@H](CCCCN)NC(=O)[C@H](CO)NC(=O)[C@H](Cc3ccc(O)cc3)NC(=O)[C@H](CC(=O)O)NC(=O)[C@H](CO)NC(=O)[C@@H](NC(=O)[C@H](Cc3ccccc3)NC(=O)[C@@H](NC(=O)CNC(=O)[C@H](CCC(N)=O)NC(=O)C(C)(C)NC(=O)[C@@H](N)Cc3c[nH]cn3)[C@@H](C)O)[C@@H](C)O)C(=O)N[C@@H](CCC(N)=O)C(=O)N[C@@H](C)C(=O)N[C@@H](C)C(=O)N2)[C@@H](C)CC)C(=O)N[C@@H](Cc2c[nH]c3ccccc23)C(=O)N[C@@H](CC(C)C)C(=O)N[C@@H](CC(C)C)C(=O)N[C@@H](CCC(N)=O)C(=O)N[C@H](C(N)=O)[C@@H](C)O)C(=O)O)C(=O)O)[C@@H](O)[C@H](O)[C@H]1O [EU-A1723] | 0.028 | 0.062 |
| CCCCCCCCCCCCCCO[C@@H]1O[C@H](CO[C@H]2O[C@H](C(=O)NCCCC[C@H](NC(=O)[C@H](C)NC(=O)[C@H](C)NC(=O)[C@H](CCC(N)=O)NC(=O)[C@H](CO)NC(=O)[C@H](CC(=O)O)NC(=O)[C@@H]3CCCCNC(=O)CC[C@H](NC(=O)[C@H](CC(=O)O)NC(=O)[C@H](CO)NC(=O)[C@@H](NC(=O)[C@H](Cc4ccccc4)NC(=O)[C@@H](NC(=O)CNC(=O)[C@H](CCC(N)=O)NC(=O)C(C)(C)NC(=O)[C@@H](N)Cc4c[nH]cn4)[C@@H](C)O)[C@@H](C)O)C(=O)N[C@@H](CO)C(=O)N[C@@H](CCCCN)C(=O)N[C@@H](Cc4ccc(O)cc4)C(=O)N3)C(=O)N[C@@H](CCC(=O)O)C(=O)N[C@@H](Cc3ccccc3)C(=O)N[C@H](C(=O)N[C@@H](CCC(N)=O)C(=O)N[C@@H](Cc3c[nH]c4ccccc34)C(=O)N[C@@H](CC(C)C)C(=O)N[C@@H](CC(C)C)C(=O)N[C@@H](CCC(N)=O)C(=O)N[C@H](C(N)=O)[C@@H](C)O)[C@@H](C)CC)[C@H](O)[C@H](O)[C@H]2O)[C@@H](O)[C@H](O)[C@H]1O [EU-A1729] (H-H[Aib]QGTFTSDESKYKDSQAAK(X2)EFIQWLLQT-NH2; lactam 10-14) | 0.006 | 0.558 |
| CCCCCCCCCCCCCCCCO[C@@H]1O[C@H](CO[C@H]2O[C@H](C(=O)NCCCC[C@H](NC(=O)[C@H](C)NC(=O)[C@H](C)NC(=O)[C@H](CCC(N)=O)NC(=O)[C@H](CO)NC(=O)[C@H](CC(=O)O)NC(=O)[C@@H]3CCCCNC(=O)CC[C@H](NC(=O)[C@H](CC(=O)O)NC(=O)[C@H](CO)NC(=O)[C@@H](NC(=O)[C@H](Cc4ccccc4)NC(=O)[C@@H](NC(=O)CNC(=O)[C@H](CCC(N)=O)NC(=O)C(C)(C)NC(=O)[C@@H](N)Cc4c[nH]cn4)[C@@H](C)O)[C@@H](C)O)C(=O)N[C@@H](CO)C(=O)N[C@@H](CCCCN)C(=O)N[C@@H](Cc4ccc(O)cc4)C(=O)N3)C(=O)N[C@@H](CCC(=O)O)C(=O)N[C@@H](Cc3ccccc3)C(=O)N[C@H](C(=O)N[C@@H](CCC(N)=O)C(=O)N[C@@H](Cc3c[nH]c4ccccc34)C(=O)N[C@@H](CC(C)C)C(=O)N[C@@H](CC(C)C)C(=O)N[C@@H](CCC(N)=O)C(=O)N[C@H](C(N)=O)[C@@H](C)O)[C@@H](C)CC)[C@H](O)[C@H](O)[C@H]2O)[C@@H](O)[C@H](O)[C@H]1O [EU-A1730] (H-H[Aib]QGTFTSDESKYKDSQAAK(X1)EFIQWLLQT-NH2; lactam 10-14; N-terminus assumed) | 0.008 | 1.17 |
| CCCCCCCCCCCCCCO[C@@H]1O[C@H](C(=O)NCCCC[C@H](NC(=O)[C@H](C)NC(=O)[C@H](C)NC(=O)[C@H](CCC(N)=O)NC(=O)[C@H](CO)NC(=O)[C@H](CC(=O)O)NC(=O)[C@@H]2CCCCNC(=O)CC[C@H](NC(=O)[C@H](CC(=O)O)NC(=O)[C@H](CO)NC(=O)[C@@H](NC(=O)[C@H](Cc3ccccc3)NC(=O)[C@@H](NC(=O)CNC(=O)[C@H](CCC(N)=O)NC(=O)C(C)(C)NC(=O)[C@@H](N)Cc3c[nH]cn3)[C@@H](C)O)[C@@H](C)O)C(=O)N[C@@H](CO)C(=O)N[C@@H](CCCCN)C(=O)N[C@@H](Cc3ccc(O)cc3)C(=O)N2)C(=O)N[C@@H](CCC(=O)O)C(=O)N[C@@H](Cc2ccccc2)C(=O)N[C@H](C(=O)N[C@@H](CCC(N)=O)C(=O)N[C@@H](Cc2c[nH]c3ccccc23)C(=O)N[C@@H](CC(C)C)C(=O)N[C@@H](CC(C)C)C(=O)N[C@@H](CCC(N)=O)C(=O)N[C@H](C(N)=O)[C@@H](C)O)[C@@H](C)CC)[C@@H](O)[C@H](O)[C@H]1O [EU-A1734] (H-H[Aib]QGTFTSDESKYKDSQAAK(GlcA(1β-O-tetradecyl))EFIQWLLQT-NH2; lactam 10-14; N-terminus assumed) | 0.006 | 0.387 |
| CCCCCCCCCCCCCCCCO[C@@H]1O[C@H](C(=O)NCCCC[C@H](NC(=O)[C@H](C)NC(=O)[C@H](C)NC(=O)[C@H](CCC(N)=O)NC(=O)[C@H](CO)NC(=O)[C@H](CC(=O)O)NC(=O)[C@@H]2CCCCNC(=O)CC[C@H](NC(=O)[C@H](CC(=O)O)NC(=O)[C@H](CO)NC(=O)[C@@H](NC(=O)[C@H](Cc3ccccc3)NC(=O)[C@@H](NC(=O)CNC(=O)[C@H](CCC(N)=O)NC(=O)C(C)(C)NC(=O)[C@@H](N)Cc3c[nH]cn3)[C@@H](C)O)[C@@H](C)O)C(=O)N[C@@H](CO)C(=O)N[C@@H](CCCCN)C(=O)N[C@@H](Cc3ccc(O)cc3)C(=O)N2)C(=O)N[C@@H](CCC(=O)O)C(=O)N[C@@H](Cc2ccccc2)C(=O)N[C@H](C(=O)N[C@@H](CCC(N)=O)C(=O)N[C@@H](Cc2c[nH]c3ccccc23)C(=O)N[C@@H](CC(C)C)C(=O)N[C@@H](CC(C)C)C(=O)N[C@@H](CCC(N)=O)C(=O)N[C@H](C(N)=O)[C@@H](C)O)[C@@H](C)CC)[C@@H](O)[C@H](O)[C@H]1O [EU-A1735] (H-H[Aib]QGTFTSDESKYKDSQAAK(βGlcA(1-O-hexadecyl))EFIQWLLQT-NH2; lactam 10-14; N-terminus assumed) | 0.008 | 0.931 |
| CCCCCCCCCCCCCCO[C@@H]1O[C@H](CO[C@H]2O[C@H](C(=O)NCCCC[C@H](NC(=O)[C@H](C)NC(=O)[C@H](C)NC(=O)[C@H](CCC(N)=O)NC(=O)[C@@H]3CCCCNC(=O)CC[C@H](NC(=O)[C@H](CO)NC(=O)[C@H](Cc4ccc(O)cc4)NC(=O)[C@H](CC(=O)O)NC(=O)[C@H](CO)NC(=O)[C@@H](NC(=O)[C@H](Cc4ccccc4)NC(=O)[C@@H](NC(=O)CNC(=O)[C@H](CCC(N)=O)NC(=O)C(C)(C)NC(=O)[C@@H](N)Cc4c[nH]cn4)[C@@H](C)O)[C@@H](C)O)C(=O)N[C@@H](Cc4ccc(O)cc4)C(=O)N[C@@H](CC(C)C)C(=O)N[C@@H](CC(=O)O)C(=O)N3)C(=O)N[C@@H](CCC(=O)O)C(=O)N[C@@H](Cc3ccccc3)C(=O)N[C@H](C(=O)N[C@@H](CCC(N)=O)C(=O)N[C@@H](Cc3c[nH]c4ccccc34)C(=O)N[C@@H](CC(C)C)C(=O)N[C@@H](CC(C)C)C(=O)N[C@@H](CCC(N)=O)C(=O)N[C@H](C(N)=O)[C@@H](C)O)[C@@H](C)CC)[C@H](O)[C@H](O)[C@H]2O)[C@@H](O)[C@H](O)[C@H]1O [EU-A1739] (H-H[Aib]QGTFTSDYSEYLDKQAAK(X2)EFIQWLLQT-NH2; lactam 12-16; N-terminus assumed) | 0.056 | 2.22 |
| CCCCCCCCCCCCCCCCO[C@@H]1O[C@H](CO[C@H]2O[C@H](C(=O)NCCCC[C@H](NC(=O)[C@H](C)NC(=O)[C@H](C)NC(=O)[C@H](CCC(N)=O)NC(=O)[C@@H]3CCCCNC(=O)CC[C@H](NC(=O)[C@H](CO)NC(=O)[C@H](Cc4ccc(O)cc4)NC(=O)[C@H](CC(=O)O)NC(=O)[C@H](CO)NC(=O)[C@@H](NC(=O)[C@H](Cc4ccccc4)NC(=O)[C@@H](NC(=O)CNC(=O)[C@H](CCC(N)=O)NC(=O)C(C)(C)NC(=O)[C@@H](N)Cc4c[nH]cn4)[C@@H](C)O)[C@@H](C)O)C(=O)N[C@@H](Cc4ccc(O)cc4)C(=O)N[C@@H](CC(C)C)C(=O)N[C@@H](CC(=O)O)C(=O)N3)C(=O)N[C@@H](CCC(=O)O)C(=O)N[C@@H](Cc3ccccc3)C(=O)N[C@H](C(=O)N[C@@H](CCC(N)=O)C(=O)N[C@@H](Cc3c[nH]c4ccccc34)C(=O)N[C@@H](CC(C)C)C(=O)N[C@@H](CC(C)C)C(=O)N[C@@H](CCC(N)=O)C(=O)N[C@H](C(N)=O)[C@@H](C)O)[C@@H](C)CC)[C@H](O)[C@H](O)[C@H]2O)[C@@H](O)[C@H](O)[C@H]1O [EU-A1740] (H-H[Aib]QGTFTSDYSEYLDKQAAK(X1)EFIQWLLQT-NH2; lactam 12-16; N-terminus assumed) | 0.077 | 3.82 |
| CCCCCCCCCCCCCCCCO[C@@H]1O[C@H](C(=O)NCCCC[C@H](NC(=O)[C@H](C)NC(=O)[C@H](C)NC(=O)[C@H](CCC(N)=O)NC(=O)[C@@H]2CCCCNC(=O)CC[C@H](NC(=O)[C@H](CO)NC(=O)[C@H](Cc3ccc(O)cc3)NC(=O)[C@H](CC(=O)O)NC(=O)[C@H](CO)NC(=O)[C@@H](NC(=O)[C@H](Cc3ccccc3)NC(=O)[C@@H](NC(=O)CNC(=O)[C@H](CCC(N)=O)NC(=O)C(C)(C)NC(=O)[C@@H](N)Cc3c[nH]cn3)[C@@H](C)O)[C@@H](C)O)C(=O)N[C@@H](Cc3ccc(O)cc3)C(=O)N[C@@H](CC(C)C)C(=O)N[C@@H](CC(=O)O)C(=O)N2)C(=O)N[C@@H](CCC(=O)O)C(=O)N[C@@H](Cc2ccccc2)C(=O)N[C@H](C(=O)N[C@@H](CCC(N)=O)C(=O)N[C@@H](Cc2c[nH]c3ccccc23)C(=O)N[C@@H](CC(C)C)C(=O)N[C@@H](CC(C)C)C(=O)N[C@@H](CCC(N)=O)C(=O)N[C@H](C(N)=O)[C@@H](C)O)[C@@H](C)CC)[C@@H](O)[C@H](O)[C@H]1O [EU-A1745] (H-H[Aib]QGTFTSDYSEYLDKQAAK(βGlcA(1-O-hexadecyl))EFIQWLLQT-NH2; lactam 12-16; N-terminus assumed) | 1.02 | 10 |

Reference: US11541028B2, “Peptide pharmaceuticals for treatment of NASH and other disorders” (Mederis Diabetes LLC, priority 2018, dated 2023)
